From patent publication US10701939B2, “Aqueous suspension agrochemical composition” (KUMIAI CHEMICAL INDUSTRY CO., LTD., priority 2015, dated 2020)

System: wheat powdery mildew (Erysiphe graminis)
Assay: Reference Example: efficacy reinforcement by adjuvant, control of wheat powdery mildew on potted wheat
Type: in vivo
Details: pyribencarb water-dispersible granules 30 g/ha, no adjuvant added (0 ppm); day 7 after inoculation
Protocol: Pyribencarb (40 parts), sodium lignin sulfonate (5 parts), polyoxyethylene alkyl aryl ether (1 part), calcium carbonate (54 parts) and water (10 parts) were mixed, kneaded, extruded, and granulated, and the resultant granules were dried in a fluidized bed dryer to obtain water-dispersible granules. Thus obtained water-dispersible granules of pyribencarb were adjusted so as to have a predetermined concentration, and the adjuvant shown in the following Table 2 was added to the diluted solution to a concentration of 100 ppm to prepare a spray solution. In addition, a spray solution containing an adjuvant at a concentration of 100 ppm without containing water-dispersible granules of pyribencarb were separately prepared. Ten wheat seeds (variety: Norin No. 61) were sowed in a plastic cup having a diameter of 5.5 cm, and after grown for 7 days in a greenhouse, 25 ml/m^2 (30 g of pyribencarb per 1 ha) was sprayed onto the wheat at 1.5 to 2 leaf stage. After air-drying, conidia of wheat powdery mildew (Erysiphe graminis) were sprayed and inoculated, and the plant was placed in a greenhouse. On day 7 after inoculation, the disease onset area of the first leaves in the pot in the spray solution-treated region and the untreated region were indexed and investigated according to the criteria in Table 1 below. […]

Structure (SMILES): COC(=O)NCc1cc(/C(C)=N/OCc2cccc(C)n2)ccc1Cl [pyribencarb, methyl={2-chloro-5-[(E)-1-(6-methyl-2-pyridylmethoxyimino)ethyl]benzyl}carbamate]
- Control effect on wheat powdery mildew (control value): 33.2%
